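Step 1: Grow cells in 96-well plates. Step 2: Expose to compound for 48 hours at 5 concentrations. Step 3: Interpolate endpoints linearly; if unreached, use highest concentration. TGI: concentration producing complete growth inhibition.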
Legend:
Assay in all cases: NCI anticancer screen, dose series, 48 h
CAKI-1 renal = tested on: CAKI-1 renal
CCRF-CEM leukemia = tested on: CCRF-CEM leukemia
DMS 114 small cell lung = tested on: DMS 114 small cell lung
EKVX NSCLC = tested on: EKVX NSCLC
HCT-116 colon = tested on: HCT-116 colon
HOP-62 NSCLC = tested on: HOP-62 NSCLC
HT29 colon = tested on: HT29 colon
IGROV1 ovarian = tested on: IGROV1 ovarian
K-562 leukemia = tested on: K-562 leukemia
KM20L2 colon = tested on: KM20L2 colon
M19-MEL melanoma = tested on: M19-MEL melanoma
NCI-H522 lung = tested on: NCI-H522 lung
SK-MEL-2 melanoma = tested on: SK-MEL-2 melanoma
SNB-19 CNS = tested on: SNB-19 CNS
SNB-78 CNS = tested on: SNB-78 CNS
SW-620 colon = tested on: SW-620 colon
U251 CNS = tested on: U251 CNS
UACC-62 melanoma = tested on: UACC-62 melanoma
MOLT-4 leukemia = tested on: MOLT-4 leukemia
OVCAR-8 ovarian = tested on: OVCAR-8 ovarian

Row | SMILES | TGI (CAKI-1 renal) [µM] | TGI (CCRF-CEM leukemia) [µM] | TGI (DMS 114 small cell lung) [µM] | TGI (EKVX NSCLC) [µM] | TGI (HCT-116 colon) [µM] | TGI (HOP-62 NSCLC) [µM] | TGI (HT29 colon) [µM] | TGI (IGROV1 ovarian) [µM] | TGI (K-562 leukemia) [µM] | TGI (KM20L2 colon) [µM] | TGI (M19-MEL melanoma) [µM] | TGI (NCI-H522 lung) [µM] | TGI (SK-MEL-2 melanoma) [µM] | TGI (SNB-19 CNS) [µM] | TGI (SNB-78 CNS) [µM] | TGI (SW-620 colon) [µM] | TGI (U251 CNS) [µM] | TGI (UACC-62 melanoma) [µM] | TGI (MOLT-4 leukemia) [µM] | TGI (OVCAR-8 ovarian) [µM]
1 | COC(=O)c1nc(-c2ccc3c(n2)C(=O)C(N)=C(OC)C3=O)c(N)c(-c2ccc(OC)c(OC)c2O)c1C | 3.28 | > 100 | 2.31 | 7.95 | 2.14 | 0.487 | 4.43 | 4.77 | 5.63 | 5.97 | 1.26 | 2.43 | 3.26 | 2.22 | 8.38 | 6.88 | 2.37 | 1.27 |  | 
2 | O=C1c2ccccc2C(=O)c2c1ccc1c2N=C(c2ccc(F)cc2)CC(c2ccc(Cl)c(Cl)c2)N1 (configuration not stated) | 17 | 17.7 | 21.7 | 20.3 | 23.7 | 58.2 | 26.3 | 23.4 | 33.5 | 30.8 | 40.4 | 20.4 | 29.3 | 25.8 | 41.5 | 19 | 24.7 | 25.7 | > 100 | 26.6
3 | C[C@@H]1C[C@]2(C[C@@H](C)[C@H]3C(C[C@@]4(C)CCC[C@@H]5C6=C[C@H](CCC34C)OC6=CC(=O)OC5(C)C)O2)OC1=O (some centres not stated) | > 51.5 | > 51.5 | > 51.5 | > 51.5 |  | > 51.5 | > 51.5 | > 51.5 | > 51.5 | > 51.5 | > 51.5 | > 51.5 | > 51.5 | > 51.5 | > 51.5 | > 51.5 | > 51.5 | > 51.5 | > 51.5 | > 51.5

Reference: PubChem BioAssay (NCI)
